# Source: US10912815B2, “Inhibitors of mitochondrial fission and methods of use thereof” (The Board of Trustees of the Leland Stanford Junior …, priority 2011, dated 2021)
# No end group written: not given here.
# What was measured:
# Drp1/Fis1 interaction = Drp1/Fis1 interaction (Homo sapiens, UniProt O00429); assay: Direct binding between recombinant Drp1 and Fis1 (immunoprecipitation); conditions: peptides 1 μM each, Drp1 50 ng, Fis1 50 ng, FIG. 2D
# Protocol: In another set of experiments, Drp1 was incubated with Fis1 and the complex was immunoprecipitated using anti-Drp1 antibody followed by immunoblotting with anti-Fis1 antibody. For direct binding between Drp1 and Fis1, recombinant Drp1 (50 ng) and Fis1 (50 ng) were incubated in PBS containing 1 mM DSP for 30 min in the presence or absence of Drp1/Fis1 peptides (1 μM each) or control peptide TAT. After termination of the reaction by 50 mM Tris-HCl, pH 7.5, reaction mixtures were subjected to immunoprecipitation with anti-Fis1 antibody in the presence of 1% Triton X-100. Immunoprecipitates were washed with PBS containing 1% Triton X-100 and analyzed by SDS-PAGE and subsequent immunoblotting with antibodies to Fis1 and Drp1.
# [1] = test system: Primary rat dopaminergic neurons; assay: Mitochondrial superoxide production in primary dopaminergic neurons exposed to MPP+; format: cell-based; conditions: P110 1 μM, MPP+ 1 μM, 2 hrs, FIG. 10A
# Protocol: Primary rat dopaminergic neurons (cultured for 6 days) were treated without or with P110 (1 μM) followed by treatment with or without MPP+(1 μM). Two hrs following MPP+ treatment, the cells were stained with MITOSOX™ red (to measure mitochondrial superoxide production) and anti-TH antibody (a marker of dopaminergic neurons). Fifteen hrs after MPP+ treatment, cells were stained with anti-TH antibody and anti-Tom20 antibody (a marker of mitochondria).
# Drp1 Ser616 = Drp1 Ser616 phosphorylation in SH-SY5Y cells; format: cell-based, human
# Protocol: (§1) Cultured human SH-SY5Y neuronal cells were treated with peptide P110 (1 μM) for 30 min prior to 1 hr incubation in the absence or presence of MPP+(1-methyl-4-phenylpyridinium, a specific mitochondrial complex I inhibitor) (2 mM) or CCCP (carbonyl cyanide m-chloro phenyl hydrazone) (10 μM). Western blot analysis of mitochondrial fractions was determined by the indicated antibodies. VDAC was used as a loading control.
# The function of Drp1 is regulated at least in part by phosphorylation events.
# Drp1 = Drp1 translocation to mitochondria in SH-SY5Y cells (western blot of mitochondrial fractions); format: cell-based, human
# Protocol: as §1
# In another experiment, mitochondria were isolated from SH-SY5Y neuronal cells exposed to MPP+ in the absence or presence of P110. Mitochondrial fractions were subjected to Western blot analysis. The levels of Drp1, Fis1, Mff, Mfn1 (mitofisinl) and OPA1 in the mitochondrial fractions were determined. Voltage-dependent […] (VDAC), a marker of mitochondria, was used as internal loading controls. Quantitative data from three independent experiments are provided a the histogram, with data shown as mean±S.E (FIG. 3D).
# OPA1 = target: T1, OPA1 (Homo sapiens, UniProt O60313); assay: In vitro GTPase assay, recombinant OPA1; format: biochemical; conditions: recombinant OPA1 25 ng, FIG. 2B
# T1 sequence (O60313 88-960): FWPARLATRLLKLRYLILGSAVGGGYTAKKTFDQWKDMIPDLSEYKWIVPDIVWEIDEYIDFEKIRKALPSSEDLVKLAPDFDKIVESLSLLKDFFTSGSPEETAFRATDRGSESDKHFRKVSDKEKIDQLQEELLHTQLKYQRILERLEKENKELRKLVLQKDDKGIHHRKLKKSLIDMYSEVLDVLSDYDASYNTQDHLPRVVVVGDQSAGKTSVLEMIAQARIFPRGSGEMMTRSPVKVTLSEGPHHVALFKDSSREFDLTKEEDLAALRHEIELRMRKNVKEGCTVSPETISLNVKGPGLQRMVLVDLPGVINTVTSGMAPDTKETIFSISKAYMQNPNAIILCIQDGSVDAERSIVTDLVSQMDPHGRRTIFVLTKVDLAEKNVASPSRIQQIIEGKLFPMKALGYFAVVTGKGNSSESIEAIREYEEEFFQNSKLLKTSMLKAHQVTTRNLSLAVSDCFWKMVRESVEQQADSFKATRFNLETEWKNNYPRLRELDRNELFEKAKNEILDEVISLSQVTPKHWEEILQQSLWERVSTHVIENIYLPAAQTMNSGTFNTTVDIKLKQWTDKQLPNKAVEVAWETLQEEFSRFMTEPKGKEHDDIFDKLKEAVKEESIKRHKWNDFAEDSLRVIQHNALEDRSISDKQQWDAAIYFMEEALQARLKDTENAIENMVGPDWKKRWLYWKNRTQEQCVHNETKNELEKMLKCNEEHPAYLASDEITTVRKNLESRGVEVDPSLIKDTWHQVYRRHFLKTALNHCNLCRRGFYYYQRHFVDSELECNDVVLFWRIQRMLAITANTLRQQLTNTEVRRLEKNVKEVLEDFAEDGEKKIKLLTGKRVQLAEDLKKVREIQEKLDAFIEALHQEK
# Protocol: First, mitochondrial fission inhibitor constructs were tested to determine what, if any, effects each peptide had on enzyme (GTPase) activity. Recombinant protein Drp1, Mfn1, OPA1 or dynamin-1 (25 ng) was incubated with the indicated modulator peptides for 30 min. GTPase activity was assayed in vitro using a GTPase assay kit (Innova Biosciences, Littleton, USA, or Novus Biologicals, Littleton, Colo.) according to manufacturer's instructions.
# Sequence of Drp1/Fis1 interaction (O00429 1-710 isoform O00429-3): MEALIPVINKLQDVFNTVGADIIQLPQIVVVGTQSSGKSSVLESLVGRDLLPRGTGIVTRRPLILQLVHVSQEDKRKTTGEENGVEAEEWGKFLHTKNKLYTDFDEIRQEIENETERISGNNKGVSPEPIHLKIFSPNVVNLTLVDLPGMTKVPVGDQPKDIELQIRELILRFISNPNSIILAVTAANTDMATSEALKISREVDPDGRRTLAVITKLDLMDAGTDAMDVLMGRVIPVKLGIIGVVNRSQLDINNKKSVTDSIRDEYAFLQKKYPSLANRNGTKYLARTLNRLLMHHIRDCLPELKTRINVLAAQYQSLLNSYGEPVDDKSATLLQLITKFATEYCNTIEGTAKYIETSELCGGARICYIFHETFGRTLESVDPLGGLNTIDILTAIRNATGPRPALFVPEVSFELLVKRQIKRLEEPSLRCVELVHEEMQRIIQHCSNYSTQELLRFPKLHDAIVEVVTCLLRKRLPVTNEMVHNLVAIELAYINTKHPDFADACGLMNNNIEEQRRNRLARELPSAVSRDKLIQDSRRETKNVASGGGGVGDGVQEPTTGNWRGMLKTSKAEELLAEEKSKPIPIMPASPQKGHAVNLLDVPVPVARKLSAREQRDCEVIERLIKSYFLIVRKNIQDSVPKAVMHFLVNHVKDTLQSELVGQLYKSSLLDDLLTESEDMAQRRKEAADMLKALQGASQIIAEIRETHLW
sequence,measurement,setting,value
"RRRQRRKKRGYGGDLLPRGS (RRRQRRKKRGYGGDLLPRGS-NH2) [P110, TAT47-57 carrier, GG linker, Drp1 region 110 (GTPase domain) peptide DLLPRGS; C-terminus C(O)-NH2]","Drp1-Fis1 interaction, recombinant proteins",Drp1/Fis1 interaction,blocked
same,mitochondrial ROS (superoxide) production,[1],reduced
same,Drp1 Ser616 phosphorylation,"Drp1 Ser616; SH-SY5Y exposed to MPP+ or CCCP, FIG. 3F",abolished Ser616 phosphorylation
same,Drp1 levels and phosphorylation under normal conditions,"Drp1 Ser616; SH-SY5Y, no stressor",did not affect
same,mitochondrial damage and neuronal cell death (MTT),"SH-SY5Y cells; peptides 0.5 μM 15 min, MPP+ 1 mM for 24 hrs, n=7-8, FIG. 9F",reduced mitochondrial damage and neuronal cell death
same,cell viability (MTT),"SH-SY5Y cells; peptides 1 μM each, MPP+ 2 mM for 24 hours, FIG. 9E",improved cell viability
same,levels of Drp1 associated with the mitochondrial fractions under stress,"Drp1; P110 1 μM 30 min before MPP+, CCCP, H2O2 or rotenone, FIG. 3A, 3B",abolished the increased levels of Drp1
same,"cellular level and distribution of other mitochondrial dynamics-related proteins (MFN-1/2, OPA1, Fis1)","Drp1; SH-SY5Y, MPP+, FIG. 3C, 3D",did not affect
same,reduction of MPP+-induced translocation of Drp1 from cytosol to the mitochondria,"Drp1; SH-SY5Y, MPP+, p<0.01, n=3, FIG. 3C, 3D",more than 60%
same,effect on GTPase activity of OPA1,OPA1,no effects
